target: REV-ERBα LBD (Homo sapiens, UniProt P20393, DEL324-422); test: biochemical; details: FRET assay; 6xHistag-REV-ERBα LBD with FITC-labeled SMRT corepressor peptide; read-out: REVERBα (Agonism of REV-ERBα, EC50)
Outline: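 TR-FRET corepressor recruitment: 4 nM His-tagged human REV-ERBα LBD (residues 281-614 Δ324-422, or 381-579), 1 nM Tb-anti-His antibody and 400 nM FITC-SMRT peptide in pH 7.4 phosphate buffer with DTT; ligands in triplicate, 2 h at 4° C. 520/495 nm ratio fitted to sigmoidal dose-response for EC50.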

REV-ERBα LBD, sequence (P20393 with tags, fused parts or gaps DEL324-422): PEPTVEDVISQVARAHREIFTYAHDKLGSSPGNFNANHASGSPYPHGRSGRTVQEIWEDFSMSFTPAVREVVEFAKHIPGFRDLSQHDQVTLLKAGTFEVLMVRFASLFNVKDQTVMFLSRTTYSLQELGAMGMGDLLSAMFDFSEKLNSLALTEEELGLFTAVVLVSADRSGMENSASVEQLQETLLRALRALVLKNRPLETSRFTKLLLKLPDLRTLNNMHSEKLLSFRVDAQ
REV-ERBα LBD, sequence (Q9Y618 2335-2356 partner limits assumed): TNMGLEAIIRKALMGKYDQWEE

EC50, < 100 nM:
CC(C)(C)Cn1cc([C@H](NS(=O)(=O)C2CC2)C(F)F)c2cc(F)c(-c3c(C(F)F)ccnc3C#N)cc21 [Compound 122, N-((1S)-1-(6-(2-cyano-4-(difluoromethyl)pyridin-3-yl)-5-fluoro-1-neopentyl-1H-indol-3-yl)-2,2-difluoroethyl)cyclopropanesulfonamide]
CC(C)(C)Cn1cc([C@H](NS(=O)(=O)C2CC2)C(F)F)c2cc(F)c(-c3cc(F)cnc3C(F)F)cc21 [Compound 123, (S)—N-(1-(6-(2-(difluoromethyl)-5-fluoropyridin-3-yl)-5-fluoro-1-neopentyl-1H-indol-3-yl)-2,2-difluoroethyl)cyclopropanesulfonamide]
Cn1ncc(C(F)F)c1-c1cc2c(cc1F)c([C@H](NS(=O)(=O)C1CC1)C(F)F)cn2CC(C)(C)C [Compound 125, (S)—N-(1-(6-(4-(difluoromethyl)-1-methyl-1H-pyrazol-5-yl)-5-fluoro-1-neopentyl-1H-indol-3-yl)-2,2-difluoroethyl)cyclopropanesulfonamide]
Cc1ccnc(C(F)F)c1-c1cc2c(cc1F)c([C@H](NS(=O)(=O)C1CC1)C(F)F)cn2CC(C)(C)C [Compound 127, N-((1S)-1-(6-(2-(difluoromethyl)-4-methylpyridin-3-yl)-5-fluoro-1-neopentyl-1H-indol-3-yl)-2,2-difluoroethyl)cyclopropanesulfonamide]
Cc1ccnc(C(F)F)c1-c1ccc2c([C@H](NS(=O)(=O)C3CC3)C(F)F)cn(CC(C)(C)C)c2c1 [Compound 128, (S)—N-(1-(6-(2-(difluoromethyl)-4-methylpyridin-3-yl)-1-neopentyl-1H-indol-3-yl)-2,2-difluoroethyl)cyclopropanesulfonamide]
Cc1ccnc(C(F)(F)F)c1-c1cc2c(cc1F)c([C@H](NS(=O)(=O)C1CC1)C(F)F)cn2CC(C)(C)C [Compound 129, N-((1S)-2,2-difluoro-1-(5-fluoro-6-(4-methyl-2-(trifluoromethyl)pyridin-3-yl)-1-neopentyl-1H-indol-3-yl)ethyl)cyclopropanesulfonamide]
Cc1nccc(C(F)(F)F)c1-c1cc2c(cc1F)c([C@H](NS(=O)(=O)C1CC1)C(F)F)cn2CC(C)(C)C [Compound 130, N-((1S)-2,2-difluoro-1-(5-fluoro-6-(2-methyl-4-(trifluoromethyl)pyridin-3-yl)-1-neopentyl-1H-indol-3-yl)ethyl)cyclopropanesulfonamide]
CC(C)(C)Cn1cc([C@H](NS(=O)(=O)C2CC2)C(F)F)c2cc(F)c(-c3c(F)ccnc3C(F)(F)F)cc21 [Compound 131, N-((1S)-2,2-difluoro-1-(5-fluoro-6-(4-fluoro-2-(trifluoromethyl)pyridin-3-yl)-1-neopentyl-1H-indol-3-yl)ethyl)cyclopropanesulfonamide]
CC(C)(C)Cn1cc([C@H](NS(=O)(=O)C2CC2)C(F)F)c2cc(F)c(-c3cc(F)cnc3C(F)(F)F)cc21 [Compound 132, (S)—N-(2,2-difluoro-1-(5-fluoro-6-(5-fluoro-2-(trifluoromethyl)pyridin-3-yl)-1-neopentyl-1H-indol-3-yl)ethyl)cyclopropanesulfonamide]
CC(C)(C)Cn1cc([C@H](NS(=O)(=O)C2CC2)C(F)F)c2cc(F)c(-c3cnc(C#N)cc3C(F)(F)F)cc21 [Compound 133, (S)—N-(1-(6-(6-cyano-4-(trifluoromethyl)pyridin-3-yl)-5-fluoro-1-neopentyl-1H-indol-3-yl)-2,2-difluoroethyl)cyclopropanesulfonamide]
CC(C)(C)Cn1cc([C@H](NS(=O)(=O)C2CC2)C(F)F)c2cc(F)c(-c3ncc(F)cc3C(F)F)cc21 [Compound 134, (S)—N-(1-(6-(3-(difluoromethyl)-5-fluoropyridin-2-yl)-5-fluoro-1-neopentyl-1H-indol-3-yl)-2,2-difluoroethyl)cyclopropanesulfonamide]
CC(C)(C)Cn1cc([C@H](NS(=O)(=O)C2CCC2)C(F)F)c2cc(F)c(-c3c(C(F)(F)F)ccnc3C#N)cc21 [Compound 135, N-((1S)-1-(6-(2-cyano-4-(trifluoromethyl)pyridin-3-yl)-5-fluoro-1-neopentyl-1H-indol-3-yl)-2,2-difluoroethyl)cyclobutanesulfonamide]
CC(C)(C)Cn1cc([C@H](NS(=O)(=O)C2CCC2)C(F)F)c2cc(F)c(-c3c(C#N)cccc3C(F)(F)F)cc21 [Compound 136, N-((1S)-1-(6-(2-cyano-6-(trifluoromethyl)phenyl)-5-fluoro-1-neopentyl-1H-indol-3-yl)-2,2-difluoroethyl)cyclobutanesulfonamide]
CC(C)(C)Cn1cc([C@H](NS(=O)(=O)C2CCC2)C(F)F)c2cc(F)c(-c3cc(F)cnc3C(F)(F)F)cc21 [Compound 137, (S)—N-(2,2-difluoro-1-(5-fluoro-6-(5-fluoro-2-(trifluoromethyl)pyridin-3-yl)-1-neopentyl-1H-indol-3-yl)ethyl)cyclobutanesulfonamide]
CC(C)(C)Cn1cc([C@H](NS(=O)(=O)C2CC2)C(F)F)c2cc(F)c(-c3ncc(C#N)cc3C(F)(F)F)cc21 [Compound 138, (S)—N-(1-(6-(5-cyano-3-(trifluoromethyl)pyridin-2-yl)-5-fluoro-1-neopentyl-1H-indol-3-yl)-2,2-difluoroethyl)cyclopropanesulfonamide]
Cc1ccc(-c2cc3c(cc2F)c([C@H](NS(=O)(=O)C2CC2)C(F)F)cn3CC(C)(C)C)c(C(F)(F)F)n1 [Compound 139, (S)—N-(2,2-difluoro-1-(5-fluoro-6-(6-methyl-2-(trifluoromethyl)pyridin-3-yl)-1-neopentyl-1H-indol-3-yl)ethyl)cyclopropanesulfonamide]
Cc1cc(C(F)(F)F)c(-c2cc3c(cc2F)c([C@H](NS(=O)(=O)C2CC2)C(F)F)cn3CC(C)(C)C)cn1 [Compound 140, (S)—N-(2,2-difluoro-1-(5-fluoro-6-(6-methyl-4-(trifluoromethyl)pyridin-3-yl)-1-neopentyl-1H-indol-3-yl)ethyl)cyclopropanesulfonamide]
Cc1cnc(C(F)(F)F)c(-c2cc3c(cc2F)c([C@H](NS(=O)(=O)C2CC2)C(F)F)cn3CC(C)(C)C)c1 [Compound 141, (S)—N-(2,2-difluoro-1-(5-fluoro-6-(5-methyl-2-(trifluoromethyl)pyridin-3-yl)-1-neopentyl-1H-indol-3-yl)ethyl)cyclopropanesulfonamide]
Cc1cnc(C(F)(F)F)c(-c2nc3c(cc2F)c([C@H](NS(=O)(=O)C2CC2)C(F)F)cn3CC(C)(C)C)c1 [Compound 142, (S)—N-(2,2-difluoro-1-(5-fluoro-6-(5-methyl-2-(trifluoromethyl)pyridin-3-yl)-1-neopentyl-1H-pyrrolo[2,3-b]pyridin-3-yl)ethyl)cyclopropanesulfonamide]
CC(C)(C)Cn1cc([C@H](NS(=O)(=O)C2CC2)C(F)F)c2cc(F)c(-c3cc(Cl)cnc3C(F)(F)F)cc21 [Compound 143, (S)—N-(1-(6-(5-chloro-2-(trifluoromethyl)pyridin-3-yl)-5-fluoro-1-neopentyl-1H-indol-3-yl)-2,2-difluoroethyl)cyclopropanesulfonamide]

— patent US20260285846A1, “REV-ERB AGONISTS FOR TH17-MEDIATED INFLAMMATORY DISORDERS” (UNIVERSITY OF FLORID RESEARCH FOUNDATION, iNCORPORATED, priority 2021, published 2026)
